The values below come from publication PMC7224190, “Pharmacological inhibition of PRMT7 links arginine monomethylation to the cellular stress response” (Nature Communications, 2020).

For test [1], the target named is T1, PRMT7 (Homo sapiens, UniProt Q9NVM4).
T1 sequence (Q9NVM4 1-692): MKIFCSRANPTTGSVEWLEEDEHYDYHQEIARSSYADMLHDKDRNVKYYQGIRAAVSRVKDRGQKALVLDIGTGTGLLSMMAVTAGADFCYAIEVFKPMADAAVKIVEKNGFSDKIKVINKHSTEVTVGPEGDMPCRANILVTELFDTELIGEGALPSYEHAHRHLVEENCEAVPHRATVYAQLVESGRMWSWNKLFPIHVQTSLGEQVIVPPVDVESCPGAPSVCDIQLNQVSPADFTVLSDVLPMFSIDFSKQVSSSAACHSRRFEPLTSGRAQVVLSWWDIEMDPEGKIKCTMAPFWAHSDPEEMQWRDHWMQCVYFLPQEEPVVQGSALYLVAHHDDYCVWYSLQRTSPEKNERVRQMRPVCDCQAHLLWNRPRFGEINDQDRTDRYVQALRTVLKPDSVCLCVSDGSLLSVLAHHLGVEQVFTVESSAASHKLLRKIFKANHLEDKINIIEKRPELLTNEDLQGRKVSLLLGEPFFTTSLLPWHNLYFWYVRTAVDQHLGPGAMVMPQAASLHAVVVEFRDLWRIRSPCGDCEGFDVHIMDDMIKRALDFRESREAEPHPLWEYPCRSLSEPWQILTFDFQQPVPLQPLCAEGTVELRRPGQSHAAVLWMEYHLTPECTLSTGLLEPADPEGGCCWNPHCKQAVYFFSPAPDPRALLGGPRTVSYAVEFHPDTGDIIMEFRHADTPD
Kind of test: radiometric enzyme kinetics (Km of the methyl donor) with HSPA8 as substrate in presence of ATP. The format is biochemical.

Test [2] has as its target T1, PRMT7. Kind of test: radiometric SPA methyltransferase assay, 3H-SAM and H2B ([…]). The format is biochemical.

On to `C[S@@+](CC[C@H](N)C(=O)O)C[C@H]1O[C@@H](n2cnc3c(N)ncnc32)[C@H](O)[C@@H]1O` [SAM], for which the Km on PRMT7 [1] was 1.6 ± 0.1 µM.
As for `NCCCSC[C@H]1O[C@@H](n2cnc3c(N)ncnc32)[C@H](O)[C@@H]1O` [SGC0911], 1000 nM corresponded to half-maximal inhibition against PRMT7 [2] (IC50).

The term Km denotes the concentration of substrate that gives half-maximal velocity. The term IC50 denotes the point on the concentration scale where inhibition reaches its midpoint. The low end stands for greater potency in that assay, the high end for weaker potency in that assay.
